This is an account of results in patent US7348363B2, “Method of controlling zoological and aquatic plant growth” (priority 2000, dated 2008).

For experiment [1], the system named is Artemia salina. The experiment can be described thus: Artemia salina toxicity. The format is in vivo. The method, then:
(§1) The effectiveness and toxicity levels of the compounds were evaluated using active plant and animal species. The various compounds were added to the water at controlled rates and amounts.

In experiment [2] the test system is Neochloris. The experiment can be described thus: Phytoplankton toxicity, Neochloris. The format is cell-based. The procedure:
(§2) Each 600 ml glass beaker containing 400 ml dinoflagellate culture was allowed to grow under continuous fluorescent light following the exposure treatments. At daily intervals, samples were taken for cell counting and microscopical examination, extraction of chlorophyll pigments with acetone and for direct in-vivo chlorophyll fluorescence determination.
(§3) End-points for quinone toxicity include cell motility, inhibition of cell division, inhibition of chlorophyll synthesis and chloroplate bleaching.
(§4) Assays for other species of phytoplankton including Chlorella sp. and Isochrysis galbana followed the above outlined procedures.

Experiment [3] relates to Minnow larvae. Put plainly: Fathead minnow acute assay (fish assay). The format is in vivo, Pimephales promelas. The procedure: Fathead minnows (Pimephales promelas) from in-house laboratory cultures were used for these tests. Animals were cultured in natural well water with hardness adjusted to >50 ppm (CaCO3) equivalents. Fish were spawned in a 20 gal spawning tank containing PVC tubing as refuges. Newly hatched larvae were transferred to a holding tank at densities of 50-100/l until use. Brine shrimp nauplii (Artemia) were used as food.
The tests were static renewal. The test durations were 48 hours and 96 hours. The temperature was 20° C.±1° C. Light quality was ambient laboratory illumination. Light intensity was 10-20 E/m^2/sec (50-100 ft-c). The photoperiod was 16 hours of light and 8 hours of dark. The test container was 400 ml. Renewal of test solutions occurred at 48 hours. The age of test organisms was 1-14 days, with a 24 hour age range. There were 10 organisms per container. There were 3 replicates per concentration of individual quinones in the ppm range. There are 5 test concentrations plus controls (initial range-finding tests performed on logarithmic series). All tests were conducted within 5 hours of dissolving the test compound. Animals were fed Artemia nauplii prior to the test and 2 hours prior to the 48 hour test solution renewal. […]
The test objectives are to determine LC50, LOEC and NOEC. […] Data are analyzed using Toxcalc 5.0.

Experiment [4] concerns Fish eggs. Format: in vivo.
Experiment [5] deals with E. affinis. The experiment can be described thus: Copepod assay (Eurytemora affinis). Format: in vivo. The procedure:
Cultures of Eurytemora affinis were continuously maintained in 15 seawater in a 8/16 hours light/dark regime fed every 48 hours on Isochrysis galbana. Toxicity bioassays are conducted on early instar naupliar larvae (chronic mortality/fecundity assay) or adults (acute LC50 assay).
Larvae were collected as follows. Cultures were filtered with a 200 m Nitex filter to separate the adults from earlier stages. Adults were then allowed to spawn for 48-72 hours in order to produce stage 1-3 naupliar larvae to be used for the assay. Assays were conducted on batches of 10 larvae per treatment (in triplicate). At 20° C., assays were continued for 12 days (shorter at higher temperatures). Endpoints were the percentage of F0 generation (present as adults) and total numbers of F1 generation (present as eggs or naupliar larvae). LC50 assays on adult copepods were conducted for 24 or 48 hours with percentage mortality as the end-point. All assays were conducted at 15 salinity on a 8 hour/16 hour light/dark regime.

In experiment [6] the test system is Zebra mussel larvae. The experiment can be described thus: Zebra mussel larvae bioassay. Format: in vivo, Dreissena polymorpha. The procedure:
Zebra mussel broodstock were maintained in natural well water with calcium and magnesium adjusted to a hardness level equivalent to approximately 25 mg/l hardness.
(§5) At 20° C., larvae remain in the free-swimming state for 30-40 days prior to settlement. Bioassays using early larval stages of this species are variants on standard oyster embryo bioassays. Assays are conducted at the embryo, trochophore and D-hinge stage.
The assays examined the toxicity of various quinones to the earliest life history stages, namely embryo to trochophore stage (2-17 hours); trochophore stage (2-17 hours); trochophore to D-hinge stage (17-48 hours); and embryo to D-hinge stage (2-48 hours).
Approximately 25 adults from broodstock (held at 10-12° C.) were cleaned of debris and transferred to 1500 ml glass beakers containing approximately 800 ml of culture water. Water temperature was rapidly raised to 30-32° C. by the addition of warm water. Mussels treated this way usually spawn within 30 minutes. If no spawning occurred within this time, a slurry made from ripe gonads homogenized in culture water is added.
A successful spawn yielded >50,000 eggs/female. To check for successful fertilization, zygotes were transferred to a Sedgewick-Rafter cell for counting and examination under a binocular microscope. Fertilized eggs were seen to be actively dividing and reached the 8-cell stage between 2-3 hours following fertilization. A better than 70% fertilization rate is considered indicative of viable experimental material.
Assays were conducted on at least 500 embryos/larvae in each of 4 replicates. A range of 5 test concentrations (in the ppm range) plus controls were used. A density of 10 embryos per ml were used for embryo assays, and for D-hinge larvae 2-larvae/ml were used. The tests were static non-renewal. Any assay lasting 24 hours or longer received food (cultured Neochloris @5×10^4 cells ml-1) at 24 hour intervals.
Following counting and adjustment of densities, embryo assays were started as early as 2 hours following fertilization by inoculating a known number of embryos into the test media. Late stages were held in culture water until inoculation. Survivors were counted using Sedgewick-Rafter cells, with adjustments for control mortality using Abbott's formula. Probit and Dunnett's test are used to obtain the LD50, Lowest Observed Effect Concentration (LOEC) and No Observed Effect Concentration (NOEC) (Toxcalc 5.0).

In experiment [7] the test system is T. isochrysis galbana. The experiment can be described thus: Phytoplankton assay, Isochrysis galbana. The format is cell-based. The procedure: The dinoflagellate prorocentrum minimum was cultured at the Chesapeake Biological Laboratory culture facility from in-house stocks grown up as a 1 liter culture in sterilized 16 ppt salinity filtered water fortified with f/2 nutrient media. The culture was diluted to 5 liters with filtered estuarine water 16 ppt salinity prior to the experiments. The approximate starting cell density was 2×10^6 cells per ml.
as §2
100 ml of each dinoflagellate culture treatment in triplicate were filtered through a 25 mm GFF filter under gentle vacuum. The filters were folded and placed in polypropylene centrifuge tubes and exactly 4 ml of HPLC grade acetone added. The samples were sonicated with a probe (Virsonic 50) for approximately 2 minutes to disrupt cells after which they are allowed to extract at 4° C. overnight in a refrigerator. After centrifuging for 5 minutes, the supernatant was transferred to a quartz fluorometer cell and the fluorescence recorded using a Hitachi F4500 scanning fluorescence detector. Excitation was fixed at 436 nm with a 10 nm slit and the emission is recorded at 660 nm with a 10 nm slit. The photomultiplier is operated at 700 V. Authentic chlorophyll a and b (Sigman Chemicals) were dissolved in HPLC grade acetone to calibrate the spectrofluorometer. Three point calibrations were performed in triplicate on a daily basis and relative fluorescence response converted into units of ug/l.
In-vivo fluorimetry with the Hitachi F4500 involves suspending the algal cells and transferring an aliquot to a disposable polycarbonate cuvette and recording the emission spectra from 600-720 nm with excitation fixed at 436 nm with a 10 nm slit width.
Direct cell counts were made with a compound binocular microscope and a hemacytometer counting triplicate samples in 80 squares.
as §3, §4

The test system of experiment [8] is Oyster larvae. Put plainly: Oyster larvae toxicity. Format: in vivo. The procedure: as §1, §5
The test system of experiment [9] is Banana snails (Bulimulis alternata). The experiment can be described thus: Banana snail bioassay on treated lettuce leaves. Format: in vivo. The settings on record: for Avoidance of treated leaves: lettuce leaves sprayed with 5, 10 and 20 mg/l aqueous solution. The procedure:
Banana snails (Bulimulis alternata) were obtained from a commercial supplier and were fed lettuce leaves until the start of the bioassay.
Ten snails were placed in covered 1 liter glass beakers, on approximately 50 cm^2 lettuce leaves which had been sprayed with a fine mist of an aqueous solution of 2,3-dimethoxy-5-methyl-1,4-benzoquinone at three concentrations: 5, 10 and 20 mg/l. The treated leaves were allowed to dry before exposure to the snails. 10 snails were placed on approximately 50 cm^2 of untreated lettuce leaf as a control. Treatments and controls were maintained at approximately 20° C. in the dark.
Others climbed up the walls of the beakers away from the leaves. […] In contrast, the control group of snails consumed more than 10% of the leaf surface area after 24 hours and continued to feed and had consumed about 20% of the leaf after 48 hours.

Regarding `CC1=CC(=O)c2c(O)cccc2C1=O` [compound 1, 2-methyl-5-hydroxy-1,4-napthoquinone], the “Toxicity Data: Toxic at (concentration)” value is recorded as “Toxic at 5 ppm” in experiment [1]; “Toxic at 500 ppm” in [2]; “Toxic at 1 ppm” in experiment [3]; “Toxic at 200 ppb” in experiment [6] (Zebra larvae); “Toxic at 50 ppb” in experiment [7]. In addition, in experiment [4], the “Toxicity Data: Kills & hatch prevention @ (concentration)” value was “prevention @ 1 ppm”. Besides, the “Toxicity Data: time to toxic effect at 5 ppm” value (from here on “Toxicity Data: time”) in experiment [5] is recorded as 5 ppm < 10 min.

With `CC1=CC(=O)c2ccccc2C1=O` [compound 2, 2-methyl-1,4-naphthalenedione (Vitamin K3)], the “Toxicity Data: Toxic at (concentration)” value was “Toxic at 5 ppm” in experiment [1], “Toxic at 500 ppm” in experiment [6] (Zebra mussel larvae) and “Toxic at 500 ppb” in [7]. The “Toxicity Data: Kills & hatch prevention @ (concentration)” value in [4] was “prevention @ 1 ppm”. In addition, the “Toxicity Data: time” value in experiment [5] is recorded as 5 ppm < 15 min. Moreover, the “Toxicity Data: toxic concentration” value in experiment [8] turned out to be 1 ppm.

Consider `CC1(S(=O)(=O)[O-])CC(=O)c2ccccc2C1=O.[Na+]` (stereo not shown) [compound 3, 2-methyl-2-sodium metabisulfite-1,4-naphthalenedione], for which the “Toxicity Data: Toxic at (concentration)” value is “Toxic at 5 ppm” in [1], “Toxic at 1 ppm” in [6] (Zebra mussel larvae) and “Toxic at 500 ppb” in experiment [7]. Also, in experiment [4], the “Toxicity Data: Kills & hatch prevention @ (concentration)” value is listed as “prevention @ 1 ppm”. Moreover, in experiment [5], the “Toxicity Data: time” value turned out to be 5 ppm < 15 min. Further, the “Toxicity Data: toxic concentration” value in experiment [8] is 500 ppb.

On to `O=C1c2ccccc2Cc2ccccc21` [compound 4, Anthrone], for which, in [7], the “Toxicity Data: Toxic at (concentration)” value is given as “Toxic at 2 ppm”.

With `O=C1c2ccccc2C(=O)c2c1ccc(O)c2O` [compound 5, 1,2-dihydroxyanthraquinone], the results for the “Toxicity Data: Toxic at (concentration)” value in experiment [1], in [5] and in experiment [7] were “Toxic at 5 ppm”, “Toxic at 1 ppm” and “Toxic at 1 ppm”, respectively.

In the case of `Cc1cc(O)c2c(c1)C(=O)c1cccc(O)c1C2=O` [compound 6, 3-methyl-1,8-dihydroxyanthraquinone], the “Toxicity Data: Toxic at (concentration)” value in experiment [6] (Zebra mussel larvae) and in experiment [7] was “Toxic at 1 ppm” in each case.

Regarding `O=C(O)c1ccc2c(c1)C(=O)c1ccccc1C2=O` [compound 7, anthraquinone-2-carboxylic acid], the “Toxicity Data: time” value in [5] was found to be 5 ppm < 5 hours. The “Toxicity Data: Toxic at (concentration)” value in [7] is reported as “Toxic at 1 ppm”.

In the case of `O=C1c2ccccc2C(=O)c2c(Cl)cccc21` [compound 8, 1-chloroanthraquinone], the “Toxicity Data: Toxic at (concentration)” value in experiment [2] and in experiment [7] was “Toxic at 500 ppb” throughout. In addition, the “Toxicity Data: time” value in experiment [5] was 5 ppm < 5 hours.

In the case of `Cc1ccc2c(c1)C(=O)c1ccccc1C2=O` [compound 9, 2-methyl-anthraquinone], the “Toxicity Data: Toxic at (concentration)” value in experiment [1] was “Toxic at 5 ppm”; in [2], “Toxic 1 ppm”; in [6] (Zebra mussel larvae) it was “Toxic at 200 ppm”; in [7], “Toxic at 500 ppb”. Moreover, the “Toxicity Data: time” value in experiment [5] was 5 ppm < 45 min.

Consider `O=C1C=CC(=O)c2ccccc21` [compound 10, 1,4-naphthalenedione], for which the “Toxicity Data: time” value in [5] worked out at 5 ppm < 10 min. Further, the “Toxicity Data: Toxic at (concentration)” value in experiment [7] is “Toxic at 1 ppm”. Further, the “Toxicity Data: toxic concentration” value in experiment [8] is on record as “Toxic at 5 ppm”.

Regarding `O=C1c2ccccc2C(=O)c2ccccc21` [compound 11, anthraquinone], the “Toxicity Data: time” value in [5] was found to be 5 ppm < 4 hours.

As to `O=C1C=CC(=O)C=C1` [compound 12, 1,4-benzoquinone], in experiment [4], the “Toxicity Data: Control hatch at (concentration)” value was “at 1 ppm”. Besides, the “Toxicity Data: Toxic at (concentration)” value in [7] was “Toxic at 500 ppb”.

On to `CC1=CC(=O)C=CC1=O` [compound 13, methyl-1,4-benzoquinone (toluquinone)], for which the “Toxicity Data: Toxic at (concentration)” value in experiment [7] was “Toxic at 500 ppb”.

For `COC1=C(OC)C(=O)C(C)=CC1=O` [compound 14, 2,3-methoxy-5-methyl-1,4-benzoquinone], the “Avoidance of treated leaves” value is listed as “avoidance behavior was again observed” in experiment [9] (after 48 hours) and “significant avoidance relative to control” in [9] (all treatments, 24 hours). The Feeding activity result in experiment [9] (several snails of the treatment group, leaves completely intact) is recorded as “no feeding activity at all”. For the same compound, in [7], the “Toxicity Data: Toxic at (concentration)” value is “Toxic at 5 ppm”.
